Assays:
5-HT2c binding site = target: T1, 5-HT2c binding site (Rattus norvegicus, UniProt P08909); experiment: [3H]-mesulergine binding; conditions: displacement of [3H]-mesulergine (1 nM) in rat prefrontal cortex membranes; test drugs 10^-6 M; 30 nM spiperone present; 37° C., 30 minutes
T1 construct: ability to displace [^3H]-mesulergine in the rat prefrontal cortex; from tissue; host or cells: rat prefrontal cortex membrane suspension
T1 sequence (P08909 33-460): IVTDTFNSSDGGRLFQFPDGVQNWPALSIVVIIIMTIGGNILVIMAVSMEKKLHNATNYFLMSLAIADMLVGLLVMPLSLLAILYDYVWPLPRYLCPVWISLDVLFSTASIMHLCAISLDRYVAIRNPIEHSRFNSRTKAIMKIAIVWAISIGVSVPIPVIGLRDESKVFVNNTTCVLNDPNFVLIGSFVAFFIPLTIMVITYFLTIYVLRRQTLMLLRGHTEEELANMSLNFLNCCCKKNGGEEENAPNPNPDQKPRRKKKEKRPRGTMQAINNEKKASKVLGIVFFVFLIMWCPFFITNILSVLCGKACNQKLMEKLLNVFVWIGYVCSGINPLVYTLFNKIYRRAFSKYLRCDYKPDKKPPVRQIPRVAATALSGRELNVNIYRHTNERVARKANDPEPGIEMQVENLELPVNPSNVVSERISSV
Protocol: [^3H]-mesulergine Binding
The affinity of the test drugs for the 5-HT2c binding site can be determined by assessing their ability to displace [^3H]-mesulergine in the rat prefrontal cortex. The method employed was similar to that of Pazos et al, 1984.
The membrane suspension ([…]) was incubated with [^3H]-mesulergine (1 nM) in Tris HCl buffer containing CaCl2 4 mM and ascorbic acid 0.1% (pH 7.4) at 37° C. for 30 minutes. Non-specific binding was measured in the presence of mianserin (1 μM). 30 nM spiperone was used to prevent binding to 5-HT2A sites. Test drugs (10^−6 M) were added in a volume of 100 μl. The total assay volume was 1000 μl. Incubation was stopped by rapid filtration using a Brandel cell harvester and radioactivity measured by scintillation counting.
The IC50 values were determined using a four parameter logistic program (DeLean 1978) and the pKi (the negative logarithm of the inhibition constant) calculated from the Cheng Prusoff equation where: [formula]
C=concentration of [^3H]-mesulergine
Kd=affinity of mesulergine for 5-HT2c binding site.

SMILES	Inhibition (%) (5-HT2c binding site)	melting point [°C]
Cn1ccc2cc(NC(=O)Nc3cccnc3)ccc21 [(1), N-(1-Methyl-1H-indol-5-yl)-N′-(3-pyridyl)urea, reference compound]	21	
O=C(Nc1cccc(-c2ccnnc2)c1)c1cccc2c1Cc1ccccc1-2 [(4), N-(3-(pyridazin-4-yl)phenyl)-9H-fluorene-1-carboxamide]	64	
O=C(Nc1cccc(-n2ccnc2)c1)c1csc(-c2ccccc2)n1 [Example 25, N-(3-(imidazol-1-yl)phenyl)-2-phenylthiazole-4-carboxamide]		131 to 134

Further lines, results first:

Inhibition (%) (5-HT2c binding site)	melting point [°C]	SMILES
74		O=C(Nc1cccc(-c2cccnc2)c1)c1cccc2c1Cc1ccccc1-2 [(2), N-(3-(pyridin-3-yl)phenyl)-9H-fluorene-1-carboxamide]
92		O=C(Nc1cccc(-c2cncnc2)c1)c1cccc2c1Cc1ccccc1-2 [(3), N-(3-(pyrimidin-5-yl)phenyl)-9H-fluorene-1-carboxamide]
